# Source: patent US6867236B1, “Method of preventing of delaying the onset and progression of Alzheimer's disease and related disorders” (Duke University, priority 1994, dated 2005)
# Tested on: Alzheimer's disease
# Experiment: Case-control study of sibships at high risk: odds ratios for age-adjusted risk of Alzheimer's disease with prior drug exposure (Cox proportional hazards models)
# Type: in vivo, human
# Conditions: for effect on risk of Alzheimer's disease in words: drug alone, orthogonal comparison with NSAIDs; for Odds ratio for risk of Alzheimer's disease: COL + AU, simple odds ratio
# Protocol: Briefly, doubly affected sib pairs with Alzheimer's disease onset ages that differed by at least 3 years were studied, as were disease-discordant siblings whose unaffected sib(s) had survived at least 3 years beyond the onset age of the affected sib. Premorbid exposures to steroids, NSAIDs and other treatments were assessed for 186 subjects (91% response rate) by focused retrospective interviews using appropriate blinding and multiple informants when possible. Survival analysis methods were used to compare age-adjusted risk of Alzheimer's disease among sibs who had been exposed or unexposed, before onset, to glucocorticoids, aspirin, non-aspirin NSAIDs, and histamine H2 receptor blockers. […] The odds ratios for steroids, aspirin and non-aspirin NSAIDs fell within the related confidence interval from the prior twin study (Breitner, Neurology 44:227 (1994)).
# Doubly affected sib pairs with Alzheimer's disease onset ages that differed by at least 3 years were studied, as were disease-discordant siblings whose unaffected sib(s) had survived at least 3 years beyond the onset age of the affected sib. Diagnoses and ages at onset of Alzheimer's disease were established by consideration of all relevant data, including extensive longitudinal observation, laboratory testing, and autopsy confirmation when available. Arthritis, peptic ulcer disease, and other non-neurological conditions were not considered when making these diagnoses. Subjects or their collateral informants received a letter, followed by a structured telephone interview, that investigated several common medical conditions (arthritis, diabetes, peptic ulcer disease) and treatments (glucocorticoids, nonsteroidal anti-inflammatories, including aspirin, acetaminophen, narcotic analgesics, insulin and oral hypoglycemic drugs, and histamine H2 blocking agents). The interview also sought timing and duration of exposure. The interviewers generally knew which subjects had Alzheimer's disease but were blinded to early- or late-affected status. The respondents were not made aware of the hypothesis under investigation. Collateral informants supplied data for the 107 subjects who had developed Alzheimer's disease. Collateral information was also sought for the remaining subjects; however, it is was necessary to rely on autobiographical data from 20 (26%).
# Like dizygous twins, siblings share 50% of their genetic make-up on average. The relation of Alzheimer's disease onset and prior use of anti-inflammatory drugs was therefore studied in a sample of 186 sibs from 45 pedigrees ascertained for genetic linkage studies of late onset Alzheimer's disease (Pericak-Vance et al, Am. J. Hum. Genet. 48:1034 (1991)). The selected sibs were members of onset-discordant doubly affected pairs or disease-discordant pairs meeting criteria described above.
# These differences and the association of Alzheimer's disease with the remaining exposures were investigated using Cox proportional hazards models (Cox, J. Roy. Stat. Soc. (Series B) 34:248-275 (1972)) in which the sample was first stratified by sibship. Table 2 reports odds ratios (o.r), the customary measure of risk associated with an exposure in case-control work. The o.r. is ordinarily calculated as the ratio of proportions exposed versus unexposed in the affected and unaffected groups; for conditions like Alzheimer's disease with age-dependent expression (Breitner et al, Am. J. Epidemiol. 128:536-548 (1988)), the o.r. is preferably calculated using proportional hazards or similar models which consider subjects' current age or age at death (i.e., censoring age), or age at onset of Alzheimer's disease. An o.r. of less than 1 implies reduced risk of disease with exposure. […] The apparent effect of both aspirin and NSAIDs increased with duration of exposure; the o.r. with use of NSAIDs for >1 yr. […]
# [1] = Table 2, source of data COL + AU (collateral + autobiographical), stratified by sibship
# [2] = Table 2, source of data COL only (collateral informants), stratified by sibship, exposure >=1 month
# [3] = Table 3, orthogonal comparison, not stratified by sibship, no NSAIDs
SMILES,Odds ratio for age-adjusted risk of Alzheimer's disease [1],Odds ratio for age-adjusted risk of Alzheimer's disease [2],Odds ratio for age-adjusted risk of Alzheimer's disease [3],effect on risk of Alzheimer's disease in words,"Odds ratio for risk of Alzheimer's disease (Table 2, exposed 1-12 mo.)","Odds ratio for risk of Alzheimer's disease (Table 2, exposed >1 yr.)","estimated odds ratios (o.r.), age-adjusted risk of Alzheimer's disease (sibs exposed or unexposed before onset)"
CC(=O)Nc1ccc(O)cc1 [Acetaminophen],0.104,0.157,0.192,comparable but statistically inconclusive effect,,,
CC(=O)Oc1ccccc1C(=O)O [Aspirin],0.343,0.349,0.508,weak but similar effect to NSAIDs,0.625,0.369,0.35
